This is an account of results in a melting point compilation (Tetko et al.; mined from patent text by program, amines drawn as free bases though some values may be those of a salt).

Turning to `C=Cc1ccc2c(n1)COC(c1ccccc1)O2` (configuration not stated), the melting point is 54 to 57 °C. Molecule `CCOC(=O)c1cccc(S(=O)(=O)NC(=O)Nc2nc(C)nc(OC)n2)c1I` returned a melting point of 177 to 179 °C.

Take `CC(=O)N1CCN=C1Nc1ccnn1-c1ccc(F)cc1`: the melting point lay in the range of 162 to 164 °C.

For `CN1C(=O)CC[C@]2(C)c3ccc(Sc4nc5c(F)cccc5s4)cc3CC[C@@H]12`, the melting point fell in the range of 140 to 145 °C.

In turn, `CCC(CC)c1nccc2c(CC(=O)O)cccc12` showed a melting point of 107 to 109 °C. As for `Fc1cc(Cl)c(OC2CCCC2)cc1-n1nc2c(c1Cl)CCCC2`, the figure is 88 to 91 °C. As for `COc1ccc(C(=O)Nc2c[nH]nc2C(=O)NCCC#N)cc1`, the figure is 199 to 200 °C; as for `CN(c1cccc2cc(-c3nc(CC(=O)O)cs3)[nH]c12)S(=O)(=O)c1cccs1`, 214 to 215 °C. For `CCOC(=O)C1=C(C)NC2=C(C(=O)OC2)C1c1ccccc1Cl` (configuration not stated) the value was 211 to 212 °C; for `CCN(CC)C(=O)n1ccc(S(=O)(=O)c2ccc(Cl)cc2Cl)n1`, 85 to 86 °C. `Cc1ccc(S(=O)(=O)Nc2ccc(C3SC(=O)NC3=O)cc2)cc1` (configuration not stated) displayed a melting point of 215 to 218 °C. As for `CC(CNC(=O)c1c2ccccc2nc2c1[nH]c1ccccc12)N(C)C` (configuration not stated), the figure is 188 to 189 °C; as for `O=C(CCCCCNC(=O)[C@H](Cc1c[nH]c2ccccc12)NC(=O)CCCc1ccccc1)NO`, 106 to 108 °C; as for `Cc1nc(N2CCCC(CCCc3ccccc3)C2=O)sc1C(=O)NCc1ccccc1` (configuration not stated), 140 to 141 °C.

In turn, `CN1C2CCCC1CC(NC(=O)c1cccc3oc(-c4ccccc4)nc13)C2` (configuration not stated) displayed a melting point of 182 to 185 °C.

`CCOC(=O)c1cn(-c2ccc(F)cn2)c2nc(N3CC(C)NC(C)C3)c(F)cc2c1=O` (configuration not stated) returned a melting point of 165 °C. `CCOC(=O)/C=C/c1ccc(-c2ccc(OCc3ccccc3)c(C34CC5CC(CC(C5)C3)C4)c2)c(Cl)c1` showed a melting point of 148 to 150 °C. In turn, `CSCCC(NC(=O)c1ccc(COc2cccnc2)cc1Oc1ccccc1)C(=O)O` (configuration not stated) came in with a melting point of 195 °C. `COC(=O)Cn1c(C)ccc1C` displayed a melting point of 44 to 46 °C. Molecule `C[Si](C)(C)C#Cc1ccc(C#N)cc1[N+](=O)[O-]` came in with a melting point of 81 to 82 °C.

With `O=C(O)CC(O)(Cn1cncn1)c1ccc(Cl)cc1Cl` (configuration not stated), the melting point was 158 to 159 °C. The molecule `CN(C)C(=O)c1ccc(C2CCC(=O)CC2)cc1` returned a melting point of 118 °C.

Regarding `NS(=O)(=O)NC(=O)NCCCCC1CCSS1` (configuration not stated), the melting point lay within 123 to 125 °C. On to `O=C(O)CC1(CC(O)=NO)CCCCCC1`, for which the melting point lay in the range of 90 to 100 °C.

With `O=C(c1c[nH]c2cc(C(F)(F)F)ccc12)C(F)(F)F`, the melting point was in the range of 250 to 251 °C. `CC(C)(C)OC(=O)NCCOc1ccccc1OCCBr` returned a melting point of 74 to 75 °C.

`COc1cc(COc2nn(-c3ccc(C(F)(F)F)cc3)cc2/C=C/C(=O)OCOC(=O)C(C)(C)C)ccc1OCc1nc(-c2ccccc2)oc1C` had a melting point of 131 to 132 °C. As for `CON1C(C)(C)CC(OC(=O)c2ccccc2C(=O)OC2CC(C)(C)N(OC)C(C)(C)C2)CC1(C)C`, the figure is 124 to 126 °C. Regarding `O=C(CCl)C1=NOC(c2c(F)cccc2F)C1` (configuration not stated), the melting point lay in the range of 82.1 to 83.4 °C.

For `CCCCCCCCCCCCCCOc1ccc2ccc(=O)oc2c1`, the melting point lay in the range of 59 to 60 °C.

`CCS(=O)(=O)CCC(=O)NNC(=O)N1Cc2cc(Cl)ccc2Oc2ccccc21` returned a melting point of 184 to 185 °C.

For the molecule `COc1ccc(-c2ccc(Br)cc2N)cc1`, the melting point was 128 to 130 °C. With `CC(C)C[C@H](NC(=O)c1ccc2c(c1)Nc1ccccc1S2)C(=O)N[C@H]1CCOC1OC(=O)N1CCOCC1` (some centres not stated), the melting point fell in the range of 165 to 167 °C.

`CC(=O)c1cc(Nc2ccn(-c3ccccc3)n2)ccc1O`: the melting point was in the range of 165 to 167 °C. For the molecule `NC(=O)CCCN(Cc1ccccc1)Cc1ccccc1`, the melting point lay in the range of 76 to 77 °C. Take `CN(c1cc(OC(F)(F)F)cc2cc(C3=NCCS3)[nH]c12)S(=O)(=O)c1cccs1`: the melting point lay within 179 to 180 °C. The molecule `COc1cccc(-n2c(=O)n(O)c(=O)c3cc(F)c(N4CCN(C)CC4)cc32)c1` returned a melting point of 158 to 160 °C. As for `CC#Cc1c(C#N)nn(-c2c(Cl)cc(C(F)(F)F)cc2Cl)c1N`, the figure is 226 to 228 °C. Regarding `CCCCCCCCC(SCCCCCC)C(=O)Nc1c(OCC)ccc2ncccc12` (configuration not stated), the melting point lay in the range of 88 to 90 °C.

Turning to `COC(=O)[C@H](CCSC)NC(=O)c1ccc(/C=C(/Cn2ccnc2)c2nccs2)cc1-c1ccccc1`, the melting point was in the range of 122 to 124 °C.

`Cc1cccc2c(=O)[nH]c(C3CCN(CCO)C3)cc12` (single isomer, unassigned; (-)) came in with a melting point of 137 to 139 °C. `CCN(CC)CCCC(=O)c1ccc2c(c1)Cc1cc(C(=O)CCCN(CC)CC)ccc1O2` gave a melting point of 63 to 65 °C. For `COc1cc(C(=O)O)ccc1Cc1c[nH]c2ccc(NC(=O)CC3CCCC3)cc12`, the melting point was 218 to 219 °C. As for `CS(=O)(=O)c1ccc(-n2nc(C(F)(F)F)cc2-c2nc3ccc(F)cc3o2)cc1`, the figure is 216 to 218 °C; as for `COc1cccc(C(=O)O)c1I`, 142 to 146 °C; as for `C[C@H](Cc1cc2c(c(C(N)=O)c1)N(CCCCO)CC2)NCCOc1ccccc1OCC(F)(F)F`, 116 to 118 °C. `Cc1nnc(-c2ccc3occ(-c4cnn(Cc5ccccc5C#N)c4)c3c2)o1` yielded a melting point of 192 to 193 °C. Consider `CCOC(=O)C1=C(C)NC(COC(C)=O)=C(C(=O)OCC)C1c1ccc(OC)cc1` (configuration not stated), for which the melting point fell in the range of 89 to 90 °C. Turning to `CCOC(=O)C(=O)Nc1cc(C)c(C(=O)OCC)s1`, the melting point was 141 to 142 °C. The molecule `CC(=O)N1CCC(CCC(=O)c2ccc3c(c2)CCN3)CC1` came in with a melting point of 145 to 146 °C. As for `CCCCCNC(=O)n1nc(Oc2ncc(C(F)(F)F)cc2Cl)cc1C`, the figure is 142 to 144 °C. With `COc1cc(C)ccc1S(=O)(=O)OC(Cl)C(=O)c1ccccc1` (configuration not stated), the melting point fell in the range of 110 to 112 °C. For `Cc1cc(Oc2ccc(C#CC(C)N(O)C(N)=O)o2)ccc1F` (configuration not stated) the value was 131 to 132 °C; for `COc1cc2c(Nc3ccc4cn[nH]c4c3)c(C#N)cnc2cc1OCCN(C)CC1OCCO1`, 185 to 187 °C; for `COc1ccc(NC(=O)c2c(C)nc3ccccc3c2O)cc1`, 222 °C. For the molecule `Cn1c(C(F)(F)F)cc(=O)n(-c2c(F)cc(Cl)c3c2OCCC3)c1=O`, the melting point fell in the range of 141 to 145 °C. The molecule `COc1ccc(C2(C#Cc3cccc(-c4nnc(C)o4)c3)CCCC(=O)C2)cc1OC1CCCC1` (configuration not stated) displayed a melting point of 117 to 119 °C.

Consider `CN(C)C(=O)NCc1cccc(-c2nc(=O)c3ccccc3s2)n1`, for which the melting point was in the range of 175 to 176 °C. Molecule `C=C(C)C(=O)OCc1ccc(O)c(C=O)c1` returned a melting point of 82 to 84 °C. Turning to `CCOC(=O)c1ccc2c(c1)S[C@@H](c1ccc(OC)cc1)[C@@H](OC(C)=O)C(=O)N2CCN(C)C` (racemic), the melting point is 167 to 171 °C. For the molecule `O=C(O)COc1ccc2cc(-c3csc(-c4ccccc4)n3)ccc2c1Br`, the melting point lay within 222 to 230 °C. For `COc1cc(C)cc2c1C(C)(C)CCC2(C)C` the value was 49 to 50 °C.
